Assay [1] addresses T1, Dr-FtsZ (Deinococcus radiodurans, UniProt Q9RWN5).
T1 construct: 42 kDa
T1 sequence (Q9RWN5 1-371): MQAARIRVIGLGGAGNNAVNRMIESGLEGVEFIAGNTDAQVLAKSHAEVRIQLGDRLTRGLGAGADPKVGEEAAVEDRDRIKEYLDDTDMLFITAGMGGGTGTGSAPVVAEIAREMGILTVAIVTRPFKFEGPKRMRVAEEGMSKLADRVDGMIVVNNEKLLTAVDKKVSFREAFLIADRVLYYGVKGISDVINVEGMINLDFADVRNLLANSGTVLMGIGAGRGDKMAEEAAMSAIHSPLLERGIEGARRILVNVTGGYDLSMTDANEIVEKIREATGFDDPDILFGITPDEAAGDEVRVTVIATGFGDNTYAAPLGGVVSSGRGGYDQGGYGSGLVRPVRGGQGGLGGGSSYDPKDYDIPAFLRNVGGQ
In words: malachite green Pi release; [α[…]]-GTP TLC. It counts as biochemical. The note with it: PIPES pH 7.5, 50 mM KCl, 2 mM MgCl2, 1 mM GTP (0.5 mM in TLC assay), 37 °C.

For another assay, the target named is T2, Dr-FtsA (Deinococcus radiodurans, UniProt Q9RWN6).
T2 construct: full-length from pBADDFtsA (pBAD/HisA), expressed in E. coli TOP10; His tag removed; 54 kDa
T2 sequence (Q9RWN6 1-517): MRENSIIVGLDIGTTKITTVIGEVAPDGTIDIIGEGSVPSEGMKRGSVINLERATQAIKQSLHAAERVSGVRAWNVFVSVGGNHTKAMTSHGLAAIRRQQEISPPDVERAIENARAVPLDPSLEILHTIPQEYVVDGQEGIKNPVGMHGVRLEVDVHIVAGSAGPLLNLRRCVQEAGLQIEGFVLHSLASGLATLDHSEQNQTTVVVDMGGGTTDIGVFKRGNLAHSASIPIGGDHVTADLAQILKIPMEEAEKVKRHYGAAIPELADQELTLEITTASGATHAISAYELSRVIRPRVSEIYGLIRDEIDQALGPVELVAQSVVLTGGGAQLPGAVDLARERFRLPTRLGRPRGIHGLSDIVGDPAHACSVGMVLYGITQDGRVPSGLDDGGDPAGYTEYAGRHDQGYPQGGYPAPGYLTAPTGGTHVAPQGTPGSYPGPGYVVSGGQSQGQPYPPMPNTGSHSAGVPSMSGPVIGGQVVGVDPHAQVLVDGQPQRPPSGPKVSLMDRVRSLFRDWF
Nature of the assay: circular dichroism; transmission electron microscopy of polymers. It counts as binding. Conditions: 10 µM ATP (CD) or 1 mM ATP (TEM), 37 °C; 25 mM PIPES pH 7.5, 50 mM KCl, with or without 5 mM MgCl2 (TEM); ATP not hydrolysed.

In assay [2] the target is T1, Dr-FtsZ. In words: stimulation of GTPase activity; [α[…]]-GTP TLC. It counts as biochemical. Conditions: 0.5 mM ATP, 0.5 mM GTP, 2 mM MgCl2, PIPES pH 7.5, 37 °C; activator, site not known; ATP not hydrolysed.

As to `Nc1nc2c(ncn2[C@@H]2O[C@H](COP(=O)(O)OP(=O)(O)OP(=O)(O)O)[C@@H](O)[C@H]2O)c(=O)[nH]1` [GTP], the “malachite green Pi release; [α32P]-GTP TLC” value on Dr-FtsZ [1] was “GTPase activity of Dr-FtsZ was stimulated in the presence of Dr-FtsA”.
Regarding `Nc1ncnc2c1ncn2[C@@H]1O[C@H](COP(=O)(O)OP(=O)(O)OP(=O)(O)O)[C@@H](O)[C@H]1O` [ATP], the “circular dichroism; transmission electron microscopy of polymers” value on Dr-FtsA was “had the correct secondary structure assignment, and interacted with ATP in solution”. Also, on Dr-FtsZ [2], the “stimulation of GTPase activity; [α32P]-GTP TLC” value was “the GTPase activity of Dr-FtsZ was stimulated in the presence of ATP (Fig. 2C)”.

The values above are taken from publication PMC4281207, “Dr-FtsA, an Actin Homologue in Deinococcus radiodurans Differentially Affects Dr-FtsZ and Ec-FtsZ Functions In Vitro” (PLoS ONE, 2014).
